Results published in patent US20260242320A1, “USE OF CANNABIDIOL DERIVATIVE IN PREPARATION OF MEDICAMENT” (priority 2023, published 2026).
“Also recorded” adds a separate entry of the source.

Tests used:
[1] = test system: morphine-dependent mice; experiment: Naloxone-precipitated morphine withdrawal jumps; format: in vivo; conditions: 2 μg/kg, 20 μg/kg, 0.2 mg/kg i.p., 0.2 mg/kg
Procedure: Mice were intraperitoneally injected with an escalating dose of morphine three times daily for 3 days (5, 20, and 40 mg/kg) to induce addiction. On the fourth day, mice were given morphine (40 mg/kg) or vehicle (5 mL/kg). […] The withdrawal was precipitated by naloxone. Each mouse was placed into a transparent plastic box immediately, and the number of jumps was recorded for 15 min.

[2] = test system: microglial activation marker Iba1; experiment: Iba1 immunofluorescence staining of brain sections; format: in vivo, mice; conditions: chronic morphine
Procedure: Mice were anesthetized with tribromoethanol following the CPP assay and intracardially perfused with 8 mL saline; the brains were then stripped out and embedded in paraffin. The brain was sectioned coronally at 5 μm thickness on a vibrating microtome. Paraffin-processed tissues were deparaffinized in xylene and rehydrated with a graded alcohol solution. The sections were placed in 0.01 M citrate buffer (pH 6.0) and heated in a microwave oven for hot antigen repair. These sections were incubated with goat serum for 20 min at 37° C. and then with rabbit anti-Iba1 monoclonal antibody at 4° C. overnight. After three washes with PBS, the sections were incubated with an Alexa-488-conjugated secondary antibody for 1 h in the dark. Ultimately, followed by three washes with PBS twice for 5 min each, the sections were counterstained with DAPI and examined under a confocal microscope

[3] = Y-maze test of short-term memory; format: in vivo, mice; conditions: CIAC001 20 mg/kg i.p.; THC 10 mg/kg i.p.
Procedure: Mice were tested for short-term memory using a Y-maze task. Briefly, mice were placed into the Y-maze for 10 min once daily to habituate the apparatus for two consecutive days. After daily habituation, the mice were then treated with CIAC001 (20 mg/kg) or THC (10 mg/kg). On the 3rd day, mice were pretreated with CIAC001 or THC 45 min before the Y-maze test. Next, the “new arm” was blocked, and mice had 5 min to freely explore two arms (the “start arm” and the “old arm”, FIG. 8F). Mice were then removed from the Y-maze and placed into the cages for 2 min. During the test phase, mice were allowed to freely explore all three arms for 2 min, and the time spent in each arm was recorded and analyzed using the Noldus analyzing software. To eliminate olfactory interference, the Y-maze was wiped off with 70% alcohol after each test.

[4] = CPP assay for rewarding effect of CIAC001; format: in vivo, mice; conditions: 20 mg/kg i.p.
Procedure: Conditional place conditioning (CPP) was conducted using the classic 10-consecutive-day procedure. On days 1 and 2, each mouse was separately placed into the CPP apparatus for 15 min to habituate the apparatus. On day 3 (preconditioning), the time spent in each compartment was recorded to determine any preference for the two compartments. […] During the conditioning phase, mice were separately isolated in the compartment for 30 min on 6 consecutive days. Mice were given morphine on days 4, 6, and 8, and vehicle (5 mL/kg) was administered on days 5, 7, and 9. The postconditioning phase was carried out 24 h after the last conditioning session. Each mouse was placed in the apparatus and explored freely, and the time spent in each compartment was recorded for 15 min. The CPP score(s) was calculated using the time spent in the drug-paired compartment minus the time spent in the vehicle-paired compartment.

[5] = biological target: T1, endogenous PKM2 in BV-2 cell lysate (Mus musculus, UniProt P52480); experiment: Cellular thermal shift assay (CETSA); format: binding
T1 construct: endogenous in cells; host or cells: BV-2 cells
T1 sequence (P52480 whole entry): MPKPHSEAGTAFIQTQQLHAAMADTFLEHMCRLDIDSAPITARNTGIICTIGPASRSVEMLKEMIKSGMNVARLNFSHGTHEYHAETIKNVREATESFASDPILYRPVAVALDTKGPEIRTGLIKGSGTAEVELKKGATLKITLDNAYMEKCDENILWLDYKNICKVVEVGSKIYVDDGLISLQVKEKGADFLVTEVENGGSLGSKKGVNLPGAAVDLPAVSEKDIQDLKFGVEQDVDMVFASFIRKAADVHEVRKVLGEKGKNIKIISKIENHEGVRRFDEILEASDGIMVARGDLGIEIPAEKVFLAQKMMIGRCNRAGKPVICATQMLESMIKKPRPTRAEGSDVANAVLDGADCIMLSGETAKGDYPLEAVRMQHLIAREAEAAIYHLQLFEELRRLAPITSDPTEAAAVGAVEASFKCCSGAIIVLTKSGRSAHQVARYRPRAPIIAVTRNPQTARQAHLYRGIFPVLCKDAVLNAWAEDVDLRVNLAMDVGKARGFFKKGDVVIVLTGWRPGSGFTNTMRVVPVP
Procedure: For CETSA experiments, BV-2 cells were seeded at a density of 4×10^5 cells/mL in 10 cm petri dishes. After 24 h, the medium was removed, and cells were washed with cold PBS (3.0 mL) 3 times and harvested by scraping. Cells were then isolated by centrifugation (1000 g, 5 min, 4° C.) and resuspended in cell lysis buffer (P0013, Beyotime Biotechnology) with the 1% protease inhibitor cocktail and then incubated on ice for 10 min. The lysates were centrifuged (12,000 g, 15 min, 4° C.), and the supernatants were collected. CIAC001 (50 μM) or vehicle control was incubated with BV-2 cell lysate supernatant for 2 h at 20° C. The lysate supernatants were divided into 60 μL each in microtubes. The lysates were heated at different temperatures (37-72° C.) for 5 min on a Long Gene A200 thermal cycler and cooled down at 25° C. for another 3 min. The samples were stored on ice until centrifugation (20,000 g, 4° C., 20 min) to remove precipitates. The lysate supernatants were denatured in 2× Laemmli sample buffer at 100° C. for 8 min for western blotting with the PKM2 antibody

[6] = test system: BV-2 cells; experiment: Cellular ATP assay; format: cell-based; conditions: 10 μM, 2 h
Procedure: BV-2 cells were seeded at a density of 5×10^5 cells per well in 6-well plates and incubated for 24 h. BV-2 cells were treated with 10 μM CIAC001 or 10 μM Compound 19b for 2 h. Cellular ATP was measured by an enhanced ATP assay kit (S0027-4, Beyotime Biotechnology Co., Ltd., Shanghai, China).

[7] = test system: lactate dehydrogenase A (LDHA) mRNA; experiment: LDHA mRNA in LPS-treated BV-2 cells; format: cell-based; conditions: 3 hours
Procedure: Total RNA was extracted from cells or mouse brains using the RNeasy Mini Kit. Isolated RNA was reverse-transcribed into cDNA using an RT2 Easy First Strand cDNA Synthesis Kit following the manufacturer's protocols. PCR amplification was conducted using synthetic primers, SYBR Green, and a TOptical Real-Time qPCR Thermal Cycler (Analytik Jena, Thuringia, Germany). The data were analyzed by the […] method, and Rpl711 or Rpl27 was used as an internal control.

[8] = test system: lactate in BV-2 culture; experiment: Extracellular lactic acid assay; format: cell-based; conditions: BV-2, 10 μM, LPS 200 ng/mL, 12 h
Procedure: BV-2 cells were seeded at a density of 5×10^5 cells per well in 6-well plates and incubated for 24 h. BV-2 cells were treated with 10 μM CIAC001 or 10 μM Compound 19b in the absence or presence of 200 ng/mL LPS for 12 h. Culture medium was collected and centrifuged (5000 g, 4° C.) for 5 min. The supernates were used for lactic acid contents determination by lactic acid assay kit (A019-2-1, Nanjing Jiancheng Bioengineering Institute).

[9] = test system: Hif-1α; experiment: Hif-1α western blot in mPFC after chronic morphine; format: in vivo; conditions: mice
From the text: ImageJ was used for densitometric analysis.

[10] = Pharmacokinetic profiles in brain and plasma after oral administration; format: in vivo, mice; conditions: male, BALB/c, mouse, 10 mg/kg p.o., read-out: B/P ratio
[11] = biological target: PKM2 (Mus musculus, UniProt P52480); experiment: Pull-down with probes 19e/19f and western blotting
PKM2, sequence (P52480 whole entry): as above
Procedure: The protein samples were separated by SDS-PAGE and transferred to PVDF membranes. The membranes were blocked with 5% nonfat dry milk for 1 h. The membranes were incubated with the corresponding primary antibody at 4° C. overnight and then washed with Tris-buffered saline with 0.1% Tween 20 (TBST) for 5 min each time and incubated for 1 h at room temperature with the secondary antibody-HRP conjugate. After washing with TBST, the membranes were developed using Super-Signal West Pico Chemiluminescent Substrate and visualized by a Tanon-5200 Multi. ImageJ was used for densitometric analysis.
BV-2 cells were treated with the probe Compound 19e (5 μM) or CIAC001 (20 μM) for 2 h at 37° C.; then, cells were transferred on ice and irradiated with 365 nm UV light for 30 min. Cells were washed with 3 mL PBS twice and lysed by buffer containing 250 mM HEPES (pH=7.9), 1.5 M KCl, 5 mM EDTA, 0.5% v/v NP-40, and 1% v/v protease inhibitor cocktail. The cell lysate was centrifuged at 4° C. and 12,000 g for 10 min, and the protein concentration was adjusted to 1 mg/mL by the BCA assay kit. […]
BV-2 cells were scraped with PBS; then, cells were lysed with buffer containing 250 mM HEPES (pH=7.9), 1.5 M KCl, 5 mM EDTA, 0.5% v/v NP-40, and 0.025% v/v protease inhibitor cocktail and incubated on ice for 30 min. […] The lysate was subjected to a click reaction as described above and analyzed by SDS-PAGE. […]

## C=C(C)[C@@H]1CCC(C)=C[C@H]1c1c(O)cc(C(C)n2nccn2)cc1O (stereo partly drawn) [CIAC001, (1′R,2′R)-4-(1-(2H-1,2,3-Triazol-2-yl)ethyl)-5′-methyl-2′-(prop-1-en-2-yl)-1′,2′,3′,4′-tetrahydro-[1,1′-biphenyl]-2,6-diol]
[1]
  naloxone-precipitated withdrawal jumps: dose-dependently attenuated; also recorded: ameliorated
[2]
  expression of Iba1 in the mPFC: decreased the expression of Iba1
[3]
  time spent on the new arm (Y maze): did not affect the time mice spent on the new arm
[4]
  rewarding effect (CPP after 6 consecutive days of training): did not show any effect on CPP
[5]
  ΔTm at 50 µM: 3.9 ± 1.3 °C
[6]
  ATP level: increase the ATP level
[7]
  LPS-induced LDHA mRNA overexpression: significantly inhibited
[8]
  LPS-induced lactate release: significantly inhibited
[9]
  chronic morphine-induced Hif-1α overexpression in mPFC: inhibit chronic morphine-induced Hif-1α overexpression
[10]; 0.083 h
  Kp at 0.083 h: 2.07 ± 0.907
[10]; 0.25 h
  Kp at 0.25 h: 2.78 ± 0.389
[11]; high concentrations of free CIAC001
  binding of Compound 19e to PKM2 in presence of free CIAC001: competitively inhibited
[11]; pull-down, western blot, BV-2
  binding with PKM (PKM2 vs PKM1) in situ and in vitro: directly binds with PKM2 rather than PKM1
